Target: T1, F-ATP synthase subunit γ (in MsF1-αβγH65W) (Mycolicibacterium smegmatis, UniProt A0R201, H65W)
T1 construct: gene atpG; recombinant MsF1-αβγH65W complex; with F-ATP synthase subunits α and β
Experiment: tryptophan fluorescence quenching titration
Format: binding

T1 sequence (A0R201 2-307 H65W): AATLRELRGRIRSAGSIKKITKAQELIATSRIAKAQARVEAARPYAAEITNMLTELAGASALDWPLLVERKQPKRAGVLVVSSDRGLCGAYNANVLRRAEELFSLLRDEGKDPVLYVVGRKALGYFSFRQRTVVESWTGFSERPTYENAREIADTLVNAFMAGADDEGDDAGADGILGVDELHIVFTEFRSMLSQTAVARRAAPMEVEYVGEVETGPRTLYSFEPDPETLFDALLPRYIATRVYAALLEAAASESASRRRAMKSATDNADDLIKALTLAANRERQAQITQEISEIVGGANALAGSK
T1 sequence (A0R202 2-548 partner): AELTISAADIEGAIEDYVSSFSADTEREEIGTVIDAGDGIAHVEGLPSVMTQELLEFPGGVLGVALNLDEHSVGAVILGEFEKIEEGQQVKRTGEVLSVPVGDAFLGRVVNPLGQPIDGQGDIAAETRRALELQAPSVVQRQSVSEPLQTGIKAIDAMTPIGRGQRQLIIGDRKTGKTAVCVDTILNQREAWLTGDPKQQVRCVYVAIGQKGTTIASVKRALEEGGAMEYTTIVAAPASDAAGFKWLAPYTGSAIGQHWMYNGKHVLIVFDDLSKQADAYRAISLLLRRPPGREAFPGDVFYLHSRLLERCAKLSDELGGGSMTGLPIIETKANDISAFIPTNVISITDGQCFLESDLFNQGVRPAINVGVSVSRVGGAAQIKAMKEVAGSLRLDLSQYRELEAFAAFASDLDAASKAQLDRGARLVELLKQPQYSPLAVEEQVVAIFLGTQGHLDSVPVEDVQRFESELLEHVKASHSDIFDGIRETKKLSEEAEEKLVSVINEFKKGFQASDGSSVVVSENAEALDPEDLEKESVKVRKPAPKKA
T1 sequence (A0R200 2-475 partner): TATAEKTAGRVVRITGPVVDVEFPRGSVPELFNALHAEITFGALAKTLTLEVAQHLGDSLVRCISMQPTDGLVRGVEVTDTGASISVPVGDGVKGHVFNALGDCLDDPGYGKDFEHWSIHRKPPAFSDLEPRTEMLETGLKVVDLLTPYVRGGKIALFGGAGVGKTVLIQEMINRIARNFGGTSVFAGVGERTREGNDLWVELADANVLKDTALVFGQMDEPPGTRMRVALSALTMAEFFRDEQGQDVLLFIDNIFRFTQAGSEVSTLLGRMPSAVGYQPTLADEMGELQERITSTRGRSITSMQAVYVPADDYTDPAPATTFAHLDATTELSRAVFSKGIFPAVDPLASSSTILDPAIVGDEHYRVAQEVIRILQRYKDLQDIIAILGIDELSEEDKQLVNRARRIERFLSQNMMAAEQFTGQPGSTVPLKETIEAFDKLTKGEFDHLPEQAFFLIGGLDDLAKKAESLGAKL

CCNc1cc(C)nc(Nc2ccc3nc(-c4ccc(Cl)cc4)[nH]c3c2)n1 [GaMF1.39]
Kd: 700 ± 90 nM

Source: publication PMC10715162 (Microbiology Spectrum, 2023)
